# Results taken from patent publication US20110039885A1, “METHODS FOR INCREASING ENDOTHELIAL PROGENITOR CELLS” (FibroGen, Inc., priority 2007, published 2011).
# Tests used:
# Assay type in all cases: in vivo, mouse
# [1] = test system: colony-forming unit-endothelial cells (CFU-EC) from bone marrow; test: EPC colony forming assay (CFU-EC) ex vivo, bone marrow of dosed mice; settings: for Bone Marrow CFU-EC: tibia bone marrow 6 h after final dose, 12 days culture; for Bone Marrow CFU-EC Fold Increase Over Control: vs vehicle control
# Experimental: EPC colony forming assays were carried out as previously described. (Murphy et al. (2007) Arterioscler Thromb Vasc Biol 27:936-942.) Briefly, mononuclear cells were isolated from whole blood samples by erythrocyte depletion using red blood cell lysis buffer (eBioscience) according to the manufacturer's instructions. The remaining cells (50,000 cells/well) were plated on fibronectin coated 24-well dishes (BD, BioSciences Discovery Labware) and incubated in endothelial growth media (EGM-2 media, Cambrex) for 12 days. At the end the incubation period, EPC colonies were counted. In another series of experiments, male Swiss-Webster mice were administered various compounds of the present invention via oral gavage using a ball-tipped gavage needle. Animals treated by oral gavage received a 10 ml/kg volume of either 0.5% carboxymethyl cellulose (CMC) with 0.1% Polysorbate 80 (vehicle control) or various doses (10-100 mg/kg) of a compound of the present invention in 0.5% CMC with 0.1% Polysorbate 80. Animals were dosed once daily for 3 or 4 days. Six hours after the final dosing, bone marrow samples were taken from one tibia of each animal. Bone marrow samples were then analyzed for EPC function and differentiation using an EPC colony forming assay as described above.
# [2] = test system: colony-forming unit-endothelial cells (CFU-EC) from blood; test: EPC colony forming assay (CFU-EC) ex vivo, blood of dosed mice; settings: for Blood CFU-EC: blood 6 h after final dose, 12 days culture; for Blood CFU-EC Fold Increase Over Control: vs vehicle control
# Experimental: To examine the effect of compounds and methods of the present invention on increasing EPCs, wherein the EPCs are functional EPCs, i.e., EPCs that are able to differentiate into mature endothelial cells, the following studies were performed in which the frequency of endothelial colony-forming cells was evaluated ex vivo. In one series of experiments, male Swiss-Webster mice were administered various compounds of the present invention via oral gavage using a ball-tipped gavage needle. Animals treated by oral gavage received a 10 ml/kg volume of either 0.5% carboxymethyl cellulose (CMC) with 0.1% Polysorbate 80 (vehicle control) or various doses (10-100 mg/kg) of a compound of the present invention in 0.5% CMC with 0.1% Polysorbate 80. Animals were dosed once daily for 3 or 4 days. Six hours after the final dosing, 200 μl blood samples were collected for analysis of EPC function and differentiation using an EPC colony forming assay. EPC colony forming assays were carried out as previously described. (Murphy et al. (2007) Arterioscler Thromb Vasc Biol 27:936-942.) Briefly, mononuclear cells were isolated from whole blood samples by erythrocyte depletion using red blood cell lysis buffer (eBioscience) according to the manufacturer's instructions. The remaining cells (50,000 cells/well) were plated on fibronectin coated 24-well dishes (BD, BioSciences Discovery Labware) and incubated in endothelial growth media (EGM-2 media, Cambrex) for 12 days. At the end the incubation period, EPC colonies were counted.
# [3] = test system: endothelial progenitor cells (EPCs), double positive KDR+/CD34+ cells, in blood; test: Blood EPC levels by FACS after oral dosing in mice; settings: for Blood EPCs / Percent Blood EPCs: blood 6 h after final dose; for Blood EPCs Fold Increase Over Control / Percent Blood EPCs Fold Increase Over Control: vs vehicle control
# Experimental: (§1) To examine the effect of compounds and methods of the present invention on endothelial progenitor cell (EPC) mobilization and EPC levels, the following studies were performed. Male Swiss-Webster mice were administered various compounds of the present invention via oral gavage using a ball-tipped gavage needle. Animals treated by oral gavage received a 10 ml/kg volume of either 0.5% carboxymethyl cellulose (CMC) with 0.1% Polysorbate 80 (vehicle control) or various doses (10-100 mg/kg) of a compound of the present invention in 0.5% CMC with 0.1% Polysorbate 80. Animals were dosed once daily for 3 or 4 days. Six hours after the final dosing, 200 μl blood samples were collected for detection of EPCs by FACS analysis as previously described. (Vasa et al. (2001) Circ Res 89:e1-e7.) Briefly, mononuclear cells were isolated from whole blood samples by erythrocyte depletion using red blood cell lysis buffer (eBioscience) according to the manufacturer's instructions. The remaining cells were incubated for one hour with monoclonal antibodies directed against mouse CD34 and mouse KDR, cell surface markers for EPCs (BD Pharmingen). Following incubation with the anti-CD34 and anti-KDR monoclonal antibodies, the samples were washed three times with sort buffer (PBS, 1% fetal bovine serum) and resuspended in sort buffer containing 50 μg/ml of propidium iodide. Samples were then analyzed for the presence and quantitation of EPCs by flow cytometry (FACS Calibur, Becton Dickinson). The cytometer was set to acquire 10 000 events. Two or three samples obtained from each animal were analyzed and the average recorded. EPCs were determined as double positive KDR+/CD34+ cells.
# [4] = test system: endothelial progenitor cells (EPCs), KDR+/CD34+ cells, in bone marrow; test: Bone marrow EPC levels by FACS after oral dosing in mice; settings: for Percent Bone Marrow EPCs: tibia bone marrow 6 h after final dose; for Percent Bone Marrow EPCs Fold Increase Over Control: vs vehicle control
# Experimental: as §1
# To examine the effect of compounds and methods of the present invention on EPC levels in bone marrow, the following studies were performed. Male Swiss-Webster mice were administered various compounds of the present invention via oral gavage using a ball-tipped gavage needle. Animals treated by oral gavage received a 10 ml/kg volume of either 0.5% carboxymethyl cellulose (CMC) with 0.1% Polysorbate 80 (vehicle control) or various doses (10-100 mg/kg) of a compound of the present invention in 0.5% CMC with 0.1% Polysorbate 80. Animals were dosed once daily for 3 or 4 days. Six hours after the final dosing, bone marrow samples were taken from one tibia of each animal and suspended in buffer (PBS with 1% fetal bovine serum). Bone marrow suspensions were then filtered through nylon filters to remove stromal cells. Following filtration, the remaining cells were counted manually using a hemocytometer. Detection and quantitation of EPCs was performed by FACS analysis as described above in Example 1.
# [5] = 60 mg/kg oral gavage once daily, 3 days
# [6] = 100 mg/kg oral gavage once daily, 4 days
# [7] = 20 mg/kg oral gavage once daily, 3 days
# [8] = 20 mg/kg oral gavage once daily, 4 days
# [9] = 60 mg/kg oral gavage once daily, 4 days
compound,measurement,setting,value
"COc1ccc(Oc2ccc3c(O)c(C(=O)NCC(=O)O)ncc3c2)cc1 [Compound A, {[4-Hydroxy-7-(4-methoxy-phenoxy)-isoquinoline-3-carbonyl]-amino}-acetic acid]",Bone Marrow CFU-EC,[1]; [5],"29.0 colonies/50,000 cells"
same,Bone Marrow CFU-EC Fold Increase Over Control,"[1]; 60 mg/kg oral, 3 days",3.0 fold
same,Bone Marrow CFU-EC,[1]; [6],"24.8 colonies/50,000 cells"
same,Bone Marrow CFU-EC Fold Increase Over Control,"[1]; 100 mg/kg oral, 4 days",3.2 fold
same,Blood CFU-EC,[2]; [5],"16.8 colonies/50,000 cells"
same,Blood CFU-EC Fold Increase Over Control,"[2]; 60 mg/kg oral, 3 days",8.4 fold
same,Blood CFU-EC,[2]; [6],"17.8 colonies/50,000 cells"
same,Blood CFU-EC Fold Increase Over Control,"[2]; 100 mg/kg oral, 4 days",3.63 fold
same,Blood EPCs,[3]; [5],24.7 cells/μl
same,Percent Blood EPCs,[3]; [5],2.6 % gated cells
same,Blood EPCs Fold Increase Over Control,"[3]; 60 mg/kg oral, 3 days",2.4 fold
same,Percent Blood EPCs Fold Increase Over Control,"[3]; 60 mg/kg oral, 3 days",2.0 fold
same,Blood EPCs,[3]; [6],309.0 cells/μl
same,Percent Blood EPCs,[3]; [6],3.2 % gated cells
same,Blood EPCs Fold Increase Over Control,"[3]; 100 mg/kg oral, 4 days",8.4 fold
same,Percent Blood EPCs Fold Increase Over Control,"[3]; 100 mg/kg oral, 4 days",4.7 fold
same,Percent Bone Marrow EPCs,[4]; [5],6.7 % gated cells
same,Percent Bone Marrow EPCs Fold Increase Over Control,"[4]; 60 mg/kg oral, 3 days",2.0 fold
same,Percent Bone Marrow EPCs,[4]; [6],14.1 % gated cells
same,Percent Bone Marrow EPCs Fold Increase Over Control,"[4]; 100 mg/kg oral, 4 days",1.8 fold
"Cc1nc(C(=O)NCC(=O)O)c(O)c2ccc(Oc3ccccc3)cc12 [Compound B, [(4-Hydroxy-1-methyl-7-phenoxy-isoquinoline-3-carbonyl)-amino]-acetic acid]",Bone Marrow CFU-EC,[1]; [5],"22.0 colonies/50,000 cells"
same,Bone Marrow CFU-EC Fold Increase Over Control,"[1]; 60 mg/kg oral, 3 days",2.2 fold
same,Bone Marrow CFU-EC,[1]; [6],"22.4 colonies/50,000 cells"
same,Bone Marrow CFU-EC Fold Increase Over Control,"[1]; 100 mg/kg oral, 4 days",2.9 fold
same,Blood CFU-EC,[2]; [5],"12.4 colonies/50,000 cells"
same,Blood CFU-EC Fold Increase Over Control,"[2]; 60 mg/kg oral, 3 days",6.2 fold
same,Blood CFU-EC,[2]; [6],"9.3 colonies/50,000 cells"
same,Blood CFU-EC Fold Increase Over Control,"[2]; 100 mg/kg oral, 4 days",1.9 fold
same,Blood EPCs,[3]; [5],10.4 cells/μl
same,Percent Blood EPCs,[3]; [5],1.0 % gated cells
same,Blood EPCs Fold Increase Over Control,"[3]; 60 mg/kg oral, 3 days",1.0 fold
same,Percent Blood EPCs Fold Increase Over Control,"[3]; 60 mg/kg oral, 3 days",0.8 fold
same,Blood EPCs,[3]; [6],304.0 cells/μl
same,Percent Blood EPCs,[3]; [6],3.0 % gated cells
same,Blood EPCs Fold Increase Over Control,"[3]; 100 mg/kg oral, 4 days",8.2 fold
same,Percent Blood EPCs Fold Increase Over Control,"[3]; 100 mg/kg oral, 4 days",4.3 fold
same,Percent Bone Marrow EPCs,[4]; [5],9.0 % gated cells
same,Percent Bone Marrow EPCs Fold Increase Over Control,"[4]; 60 mg/kg oral, 3 days",2.7 fold
same,Percent Bone Marrow EPCs,[4]; [6],16.1 % gated cells
same,Percent Bone Marrow EPCs Fold Increase Over Control,"[4]; 100 mg/kg oral, 4 days",2.1 fold
"Cc1cccc(C)c1Oc1ccc2c(C#N)nc(C(=O)NCC(=O)O)c(O)c2c1 [Compound C, {[1-Cyano-6-(2,6-dimethyl-phenoxy)-4-hydroxy-isoquinoline-3-carbonyl]-amino}-acetic acid]",Bone Marrow CFU-EC,[1]; [7],"25.7 colonies/50,000 cells"
same,Bone Marrow CFU-EC,[1]; [8],"26.0 colonies/50,000 cells"
same,Bone Marrow CFU-EC Fold Increase Over Control,"[1]; 20 mg/kg oral, 3 days",5.1 fold
same,Bone Marrow CFU-EC Fold Increase Over Control,"[1]; 20 mg/kg oral, 4 days",1.9 fold
same,Bone Marrow CFU-EC,[1]; [5],"28.0 colonies/50,000 cells"
same,Bone Marrow CFU-EC,[1]; [9],"61.0 colonies/50,000 cells"
same,Bone Marrow CFU-EC Fold Increase Over Control,"[1]; 60 mg/kg oral, 3 days",5.6 fold
same,Bone Marrow CFU-EC Fold Increase Over Control,"[1]; 60 mg/kg oral, 4 days",4.5 fold
same,Blood CFU-EC,[2]; [7],"7.7 colonies/50,000 cells"
same,Blood CFU-EC,[2]; [8],"5.6 colonies/50,000 cells"
same,Blood CFU-EC Fold Increase Over Control,"[2]; 20 mg/kg oral, 3 days",4.3 fold
same,Blood CFU-EC Fold Increase Over Control,"[2]; 20 mg/kg oral, 4 days",4.3 fold
same,Blood CFU-EC,[2]; [5],"7.4 colonies/50,000 cells"
same,Blood CFU-EC,[2]; [9],"6.6 colonies/50,000 cells"
same,Blood CFU-EC Fold Increase Over Control,"[2]; 60 mg/kg oral, 3 days",4.14 fold
same,Blood CFU-EC Fold Increase Over Control,"[2]; 60 mg/kg oral, 4 days",5.1 fold
same,Blood EPCs,[3]; [7],151.9 cells/μl
same,Percent Blood EPCs,[3]; [7],1.3 % gated cells
same,Blood EPCs,[3]; [8],125.9 cells/μl
same,Percent Blood EPCs,[3]; [8],0.7 % gated cells
same,Blood EPCs Fold Increase Over Control,"[3]; 20 mg/kg oral, 3 days",4.2 fold
same,Percent Blood EPCs Fold Increase Over Control,"[3]; 20 mg/kg oral, 3 days",1.8 fold
same,Blood EPCs Fold Increase Over Control,"[3]; 20 mg/kg oral, 4 days",2.5 fold
same,Percent Blood EPCs Fold Increase Over Control,"[3]; 20 mg/kg oral, 4 days",1.0 fold
same,Blood EPCs,[3]; [5],195.1 cells/μl
same,Percent Blood EPCs,[3]; [5],1.4 % gated cells
same,Blood EPCs,[3]; [9],240.0 cells/μl
same,Percent Blood EPCs,[3]; [9],1.0 % gated cells
same,Blood EPCs Fold Increase Over Control,"[3]; 60 mg/kg oral, 3 days",5.4 fold
same,Percent Blood EPCs Fold Increase Over Control,"[3]; 60 mg/kg oral, 3 days",1.9 fold
same,Blood EPCs Fold Increase Over Control,"[3]; 60 mg/kg oral, 4 days",4.7 fold
same,Percent Blood EPCs Fold Increase Over Control,"[3]; 60 mg/kg oral, 4 days",1.3 fold
same,Percent Bone Marrow EPCs,[4]; [7],2.2 % gated cells
same,Percent Bone Marrow EPCs,[4]; [8],0.6 % gated cells
same,Percent Bone Marrow EPCs Fold Increase Over Control,"[4]; 20 mg/kg oral, 3 days",2.2 fold
same,Percent Bone Marrow EPCs Fold Increase Over Control,"[4]; 20 mg/kg oral, 4 days",0.9 fold
same,Percent Bone Marrow EPCs,[4]; [5],3.2 % gated cells
same,Percent Bone Marrow EPCs,[4]; [9],0.9 % gated cells
same,Percent Bone Marrow EPCs Fold Increase Over Control,"[4]; 60 mg/kg oral, 3 days",3.2 fold
same,Percent Bone Marrow EPCs Fold Increase Over Control,"[4]; 60 mg/kg oral, 4 days",1.4 fold
